In this assay the target is T1, Full-length glucokinase (beta cell isoform) (Homo sapiens, UniProt P35557).
T1 construct: Full-length glucokinase (beta cell isoform) was His-tagged at N-terminus; His tag (N); made in house
T1 sequence (P35557 1-465): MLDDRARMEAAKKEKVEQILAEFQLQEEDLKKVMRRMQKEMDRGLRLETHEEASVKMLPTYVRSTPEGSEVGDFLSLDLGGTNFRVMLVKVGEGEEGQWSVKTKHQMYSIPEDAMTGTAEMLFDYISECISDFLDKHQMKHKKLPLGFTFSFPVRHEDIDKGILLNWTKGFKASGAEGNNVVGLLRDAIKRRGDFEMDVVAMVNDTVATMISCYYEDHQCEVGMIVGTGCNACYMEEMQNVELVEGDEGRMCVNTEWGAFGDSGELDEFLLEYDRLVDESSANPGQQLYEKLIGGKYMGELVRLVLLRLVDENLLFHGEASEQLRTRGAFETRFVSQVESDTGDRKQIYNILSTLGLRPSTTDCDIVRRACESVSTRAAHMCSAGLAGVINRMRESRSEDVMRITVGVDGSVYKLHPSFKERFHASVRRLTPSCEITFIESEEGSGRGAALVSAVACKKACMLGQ
The assay can be described thus: Glucokinase activation assay (PK/LDH-coupled, NADH depletion at 340 nm). The format is biochemical. The conditions noted are these: 5 mM glucose, 2.5 mM ATP, pH 7.1, room temperature, values given as a range where N>1; for Emax: fitted % max activation, read-out: Maximum Activation. The protocol: Full-length glucokinase (beta cell isoform) was His-tagged at N-terminus and purified by a Ni column followed by size exclusion chromatography. A 320 mL column was packed in house using Pharmacia Superdex75 preparation grade resin. Glucose was obtained from Calbiochem (San Diego, Calif.) and other reagents were purchased from Sigma (St. Louis, Mo.).
All assays were performed in a Corning 384-well plate using Spectramax PLUS spectrophotometer (Molecular Devices, Sunnyvale, Calif.) at room temperature. The final assay volume was 40 μL. The buffer conditions used in this assay were as follows: 50 mM HEPES, 5 mM glucose, 2.5 mM ATP, 3.5 mM MgCl2, 0.7 mM NADH, 2 mM dithiothreitol, 1 Unit/mL PK/LDH, 0.2 mM phosphoenolpyruvate, and 25 mM KCl. The buffer pH was 7.1. The test compound in DMSO solution was added to the buffer and mixed by a plate shaker for 7.5 minutes. The final concentration of DMSO introduced into the assay was 0.25%.
Glucokinase was added to the buffer mixture to initiate the reaction in the presence and absence of compound. The reaction was monitored by absorbance at 340 nm due to the depletion of NADH. The initial reaction velocity was measured by the slope of a linear time course of 0-300 seconds. The percentage of activation was calculated by the following equation:
% Activation=(Va/Vo−1)×100;
wherein each of Va and Vo is defined as the initial reaction velocity in the presence and absence of the tested compound, respectively.
To determine the EC50 (half maximal effective concentration) and % maximum activation, compounds were serially diluted in DMSO by 3-fold. The GK activities were measured as a function of compound concentrations. The data were fitted to the equation below to obtain the EC50 and % max activation values:
Va/Vo=1+(% max activation/100)/(1+EC50/compound concentration)

Where a name gives a salt, the structure may show the parent alone.

In the case of `O=C(Nc1ccn(Cc2ccccc2)n1)[C@H](CC1CCCC1)n1ccc(C(F)(F)F)cc1=O` [Example 30, (S)—N-(1-benzyl-1H-pyrazol-3-yl)-3-cyclopentyl-2-(2-oxo-4-(trifluoromethyl)pyridin-1(2H)-yl)propanamide], the Emax was found to be 58% and a half-maximal response (EC50) required 4.2 µM.
The like results for `O=C(Nc1ccon1)[C@H](CC1CCCC1)n1cc(C(F)(F)F)ccc1=O` [Example 18, (S)-3-cyclopentyl-N-(isoxazol-3-yl)-2-(2-oxo-5-(trifluoromethyl)pyridin-1(2H)-yl)propanamide] were, in that order, 103% and 9.3 µM.
On to `CCOC(=O)Cc1cnc(NC(=O)[C@H](CC2CCCC2)n2cc(C(F)(F)F)ccc2=O)s1` [Example 25, (S)-ethyl 2-(2-(3-cyclopentyl-2-(2-oxo-5-(trifluoromethyl)pyridin-1(2H)-yl)propanamido)thiazol-5-yl)acetate], for which the Emax was found to be 84% and the EC50 came out at 2.9 µM.
For `CC(C)(O)Cn1ccc(NC(=O)[C@H](CC2CCCC2)n2ccc(C(F)(F)F)cc2=O)n1` [Example 32, (S)-3-cyclopentyl-N-(1-(2-hydroxy-2-methylpropyl)-1H-pyrazol-3-yl)-2-(2-oxo-4-(trifluoromethyl)pyridin-1(2H)-yl)propanamide], in that order: 87 to 90% and 6.9 to 7.5 µM.
For the compound `Cc1ccc(NC(=O)[C@H](CC2CCCC2)n2cnc(C(F)(F)F)cc2=O)nc1` [Example 23, (S)-3-cyclopentyl-N-(5-methylpyridin-2-yl)-2-(6-oxo-4-(trifluoromethyl)pyrimidin-1(6H)-yl)propanamide], the Emax stood at 77% and the response was half-maximal at 2.6 µM (EC50).
`Cc1cnc(NC(=O)[C@H](CC2CCOCC2)n2cc(C(F)(F)F)ccc2=O)cn1` [Example 39, (S)—N-(5-methylpyrazin-2-yl)-2-(2-oxo-5-(trifluoromethyl)pyridin-1(2H)-yl)-3-(tetrahydro-2H-pyran-4-yl)propanamide] yielded an EC50 above 100 µM.
Consider `CCn1ccc(NC(=O)[C@H](CC2CCCC2)n2cc(C(F)(F)F)ccc2=O)n1` [Example 10, (S)-3-cyclopentyl-N-(1-ethyl-1H-pyrazol-3-yl)-2-(2-oxo-5-(trifluoromethyl)pyridin-1(2H)-yl)propanamide], for which the Emax fell in the range of 121 to 148% and the EC50 lay within 1.5 to 2.1 µM.
As for `CCn1ccc(NC(=O)[C@H](CC2CCCC2)n2ccc(C(F)(F)F)cc2=O)n1` [Example 15, (S)-3-cyclopentyl-N-(1-ethyl-1H-pyrazol-3-yl)-2-(2-oxo-4-(trifluoromethyl)pyridin-1(2H)-yl)propanamide], the Emax came to 92% and the EC50 was determined as 9.4 µM.
The like results for `Cn1ccc(NC(=O)[C@H](CC2CCCC2)n2ccc(C(F)(F)F)cc2=O)n1` [Example 4, (S)-3-cyclopentyl-N-(1-methyl-1H-pyrazol-3-yl)-2-(2-oxo-4-(trifluoromethyl)pyridin-1(2H)-yl)propanamide] were, in that order, 72 to 106% and 4.6 to 22.4 µM.
For `Cn1ccc(NC(=O)[C@H](CC2CCCC2)n2cnc(C(F)(F)F)cc2=O)n1` [Example 24, (S)-3-cyclopentyl-N-(1-methyl-1H-pyrazol-3-yl)-2-(6-oxo-4-(trifluoromethyl)pyrimidin-1(6H)-yl)propanamide], in that order: 106% and 27.1 µM.
On to `Cn1ccc(NC(=O)[C@H](CC2CCOCC2)n2ccc(C(F)(F)F)cc2=O)n1` [Example 43, (S)—N-(1-methyl-1H-pyrazol-3-yl)-2-(2-oxo-4-(trifluoromethyl)pyridin-1(2H)-yl)-3-(tetrahydro-2H-pyran-4-yl)propanamide], for which the concentration for a half-maximal effect (EC50) is above 100 µM.
As for `O=C(Nc1ccn(Cc2ccccc2)n1)[C@H](CC1CCCC1)n1cc(C(F)(F)F)ccc1=O` [Example 11, (S)—N-(1-benzyl-1H-pyrazol-3-yl)-3-cyclopentyl-2-(2-oxo-5-(trifluoromethyl)pyridin-1(2H)-yl)propanamide], the Emax fell in the range of 108 to 141% and the EC50 was 0.7 to 1.3 µM.
As to `O=C(Nc1ccc(CO)cn1)[C@H](CC1CCCC1)n1cc(C(F)(F)F)ccc1=O` [Example 33, (S)-3-cyclopentyl-N-(5-(hydroxymethyl)pyridin-2-yl)-2-(2-oxo-5-(trifluoromethyl)pyridin-1(2H)-yl)propanamide], the Emax was in the range of 85 to 159% and the concentration giving a half-maximal response (EC50) was 0.3 to 0.5 µM.
For the compound `O=C(Nc1ccncn1)[C@H](CC1CCCC1)n1ccc(C(F)(F)F)cc1=O` [Example 14, (S)-3-cyclopentyl-2-(2-oxo-4-(trifluoromethyl)pyridin-1(2H)-yl)-N-(pyrimidin-4-yl)propanamide], the Emax is 58% and the EC50 is 5.8 µM.
For `O=C(O)Cc1cnc(NC(=O)[C@H](CC2CCCC2)n2cc(C(F)(F)F)ccc2=O)s1` [Example 26, (S)-2-(2-(3-cyclopentyl-2-(2-oxo-5-(trifluoromethyl)pyridin-1(2H)-yl)propanamido)thiazol-5-yl)acetic acid mono acetic acid salt], in that order: 116% and 11.1 µM.
As to `O=C(Nc1cnccn1)[C@H](CC1CCCC1)n1ccc(C(F)(F)F)cc1=O` [Example 13, (S)-3-cyclopentyl-2-(2-oxo-4-(trifluoromethyl)pyridin-1(2H)-yl)-N-(pyrazin-2-yl)propanamide], the Emax was 106% and the EC50 is 14 µM.
The like results for `Cc1ccc(NC(=O)[C@H](CC2CCOCC2)n2cc(C(F)(F)F)ccc2=O)nc1` [Example 38, (S)—N-(5-methylpyridin-2-yl)-2-(2-oxo-5-(trifluoromethyl)pyridin-1(2H)-yl)-3-(tetrahydro-2H-pyran-4-yl)propanamide] were, in that order, 57 to 70% and 2.9 to 4.6 µM.
Turning to `Cc1cnc(NC(=O)[C@H](CC2CCCC2)n2cc(C(F)(F)F)ccc2=O)cn1` [Example 7, (S)-3-cyclopentyl-N-(5-methylpyrazin-2-yl)-2-(2-oxo-5-(trifluoromethyl)pyridin-1(2H)-yl)propanamide], the Emax is 118 to 152% and the EC50 was 1.6 to 3.7 µM.
Consider `O=C(Nc1cnccn1)[C@H](CC1CCCC1)n1cc(C(F)(F)F)ccc1=O` [Example 8, (S)-3-cyclopentyl-2-(2-oxo-5-(trifluoromethyl)pyridin-1(2H)-yl)-N-(pyrazin-2-yl)propanamide], for which the Emax is 110 to 128% and the concentration for a half-maximal effect (EC50) lay in the range of 1.7 to 3.2 µM.

As usually defined, the EC50 is the midpoint of the concentration-response curve. Low readings indicate an effect from little substance, high ones a need for much substance.
